This is an account of results in ChEMBL document CHEMBL1201862, “PubChem BioAssay data set” (2004).

The structures appear in SMILES notation.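 Following 48 hours of exposure in 96-well plates, responses at five concentrations were used to interpolate endpoints linearly. GI50 marks 50% less growth.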 Active and inactive are the calls of the source. Cut-off read from the data, not from the text of the source: active = GI50 up to about 1.1 µM and inactive = higher.

Common to all, as to experiment: NCI anticancer screen, dose series, 48 h
Experiment [1] deals with DU-145.
Experiment [2] concerns BT-549.
In experiment [3] the test system is OVCAR-3.
Experiment [4] concerns A498.
In experiment [5] the test system is HT-29.
Experiment [6] concerns PC-3.
The test system of experiment [7] is MDA-N.
Experiment [8] deals with SN12C.
Experiment [9] concerns ACHN.
Experiment [10] has as its system Malme-3M.
The subject of experiment [11] is UACC-257.
The test system of experiment [12] is LOX IMVI.
Experiment [13] concerns SF-295.
Experiment [14] has as its system EKVX.
The subject of experiment [15] is K562.
In experiment [16] the test system is MCF7.
Experiment [17] has as its system SK-MEL-5.
The subject of experiment [18] is OVCAR-4.
Experiment [19] deals with SF-539.
For experiment [20], the system named is A549.

Regarding `Cc1nc2ccc(NC3OC(CO)C(O)C(O)C3O)cc2c(=O)n1-c1ccccc1` (stereo not given), the GI50 in experiment [1], in experiment [2], in experiment [3], in experiment [4], in [5] and in experiment [6] was > 100 µM (inactive) in each case. Also, the GI50 in [7], in experiment [8], in experiment [9], in [10], in [11] and in experiment [12] was > 100 µM (inactive) in each case. Further, the GI50 in experiment [13] was > 100 µM (inactive); in experiment [14], > 100 µM (inactive); in [15], > 100 µM (inactive); in experiment [16], > 100 µM (inactive); in experiment [17] it was 58.3 µM (inactive); in experiment [18], > 100 µM (inactive).

On to `COc1cc(C(=O)/C=C/c2ccc(OCC#N)cc2)cc(OC)c1OC`, for which the GI50 was 28.1 µM (inactive) in experiment [1]; 17.7 µM (inactive) in experiment [2]; 22.2 µM (inactive) in [3]; 21.4 µM (inactive) in experiment [4]; 31.7 µM (inactive) in experiment [5]; 18.7 µM (inactive) in experiment [6]. The GI50 in experiment [7] was 38 µM (inactive); in experiment [8] it was 18.9 µM (inactive); in experiment [9], 23.5 µM (inactive); in [10] it was 17.4 µM (inactive); in experiment [11], 34 µM (inactive); in experiment [13], 46.2 µM (inactive). The GI50 was 50.8 µM (inactive) in experiment [14]; 24.5 µM (inactive) in [15]; 9.02 µM (inactive) in experiment [16]; 17.3 µM (inactive) in [19]; 21.4 µM (inactive) in experiment [20]; 13.2 µM (inactive) in [17]. Further, the GI50 in experiment [18] is 37.4 µM (inactive).

With `O=C1/C(=C/c2ccc(Cl)cc2)CSC/C1=C\c1ccc(Cl)cc1`, the GI50 in experiment [1] was 5.87 µM (inactive); in experiment [2] it was 2.21 µM (inactive); in experiment [3] it was 2.93 µM (inactive); in [5] it was 1.97 µM (inactive); in experiment [6], 3.52 µM (inactive); in [7] it was 3.06 µM (inactive). Moreover, the GI50 was 3.39 µM (inactive) in experiment [8]; 3.8 µM (inactive) in experiment [9]; 10.3 µM (inactive) in experiment [10]; 1.99 µM (inactive) in experiment [11]; 1.91 µM (inactive) in [12]; 1.71 µM (inactive) in experiment [13]. The GI50 is 22.9 µM (inactive) in experiment [14]; 3.08 µM (inactive) in [15]; 2.72 µM (inactive) in experiment [16]; 2.76 µM (inactive) in [19]; 4.08 µM (inactive) in [20]; 3.45 µM (inactive) in [17]. For the same molecule, in experiment [18], the GI50 was 3.71 µM (inactive).

`N#Cc1c(NC(=S)Nc2ccccc2)sc2c1CCCC2`: the GI50 in experiment [1], in [2], in experiment [3], in experiment [4], in [5] and in [6] was > 100 µM (inactive) in each case. Moreover, the GI50 in experiment [7], in experiment [8], in experiment [9], in [10], in experiment [11] and in [12] was > 100 µM (inactive) each time. In addition, the GI50 in experiment [13], in experiment [14], in experiment [15], in [16], in experiment [17] and in [18] was > 100 µM (inactive) throughout.

For `COc1cc(C)c(S(=O)(=O)N(CCCN)OCCCN)c(C)c1C`, the GI50 in [1] is 33.7 µM (inactive); in experiment [2] it was 26.6 µM (inactive); in experiment [3], 61.9 µM (inactive); in experiment [4], 39.4 µM (inactive); in experiment [5] it was 46.5 µM (inactive); in experiment [6], 25.4 µM (inactive). The GI50 in [7] is 36.9 µM (inactive); in experiment [8], 57 µM (inactive); in experiment [9], 49.4 µM (inactive); in experiment [10], 21.9 µM (inactive); in experiment [11], 21.4 µM (inactive); in experiment [12], 27.8 µM (inactive). The GI50 in [13] is 31.3 µM (inactive); in [14] it was 31.8 µM (inactive); in [15], 15.6 µM (inactive); in [16], 19.4 µM (inactive); in experiment [20], 68.5 µM (inactive); in experiment [17], 20.8 µM (inactive). For the same molecule, the GI50 in experiment [18] was > 100 µM (inactive).

Regarding `COc1ccc(CNC(=O)[C@H](Cc2ccc(O)cn2)NC(C)=O)cc1`, the GI50 in experiment [1], in experiment [2], in [3], in experiment [4], in [5] and in experiment [6] was > 100 µM (inactive) in each case. The GI50 in [7], in experiment [8], in experiment [9], in experiment [11], in [12] and in [13] was > 100 µM (inactive) in each case. The GI50 is 87.7 µM (inactive) in experiment [14]; > 100 µM (inactive) in experiment [15]; > 100 µM (inactive) in experiment [16]; > 100 µM (inactive) in experiment [19]; > 100 µM (inactive) in experiment [20]; > 100 µM (inactive) in experiment [17]. Besides, the GI50 in experiment [18] was > 100 µM (inactive).

Turning to `S=C(/N=c1/sc(Nc2ccccc2)nc2sc3c(c12)CCCC3)Nc1ccccc1`, the GI50 in experiment [1], in [2], in [3], in [4], in experiment [5] and in [6] was > 62.5 µM (inactive) each time. Moreover, the GI50 in experiment [7], in [8], in experiment [9], in experiment [10], in [11] and in experiment [12] was > 62.5 µM (inactive) throughout. For the same molecule, the GI50 in [14], in experiment [15], in experiment [16], in experiment [17] and in experiment [18] was > 62.5 µM (inactive) throughout.

For the molecule `O=C1/C(=C/c2cccc(Br)c2)CSC/C1=C\c1cccc(Br)c1`, the GI50 in [1] was 8.69 µM (inactive); in experiment [2], 2.13 µM (inactive); in experiment [3] it was 3.38 µM (inactive); in experiment [5], 2.29 µM (inactive); in experiment [6], 2.5 µM (inactive); in experiment [7], 2.65 µM (inactive). Also, the GI50 in experiment [8] was 2.25 µM (inactive); in experiment [9], 2.87 µM (inactive); in experiment [10], 1.92 µM (inactive); in experiment [11] it was 2.38 µM (inactive); in experiment [12], 1.57 µM (inactive); in experiment [13], 2.24 µM (inactive). Also, the GI50 is 5.68 µM (inactive) in [14]; 2.36 µM (inactive) in experiment [15]; 3.17 µM (inactive) in [16]; 2.53 µM (inactive) in [19]; 4.32 µM (inactive) in [20]; 1.87 µM (inactive) in experiment [17]. For the same molecule, in experiment [18], the GI50 was 2.82 µM (inactive).

`CN(C)C1C(CO)OC(n2cnc3c(N)ncnc32)C1O` (stereo not given): the GI50 in experiment [1], in experiment [2], in [3], in experiment [4], in experiment [5] and in experiment [6] was > 100 µM (inactive) in each case. In addition, the GI50 in [7], in [8], in [9], in experiment [11], in experiment [12] and in experiment [13] was > 100 µM (inactive) throughout. The GI50 in experiment [14], in experiment [15], in experiment [16], in experiment [19], in [20] and in experiment [17] was > 100 µM (inactive) in each case. For the same molecule, the GI50 in experiment [18] is > 100 µM (inactive).

`FC(F)(F)c1ccc(C2=N/S(c3ccccc3)=N\C(c3ccc(C(F)(F)F)cc3)=N/S(c3ccccc3)=N\2)cc1` (stereo not given): the GI50 in experiment [1], in [2], in [3], in [5], in experiment [6] and in [7] was > 100 µM (inactive) each time. The GI50 in experiment [8], in [9], in [10], in [11], in experiment [12] and in [13] was > 100 µM (inactive) throughout. Moreover, the GI50 in experiment [14], in [15], in experiment [16], in [19], in experiment [20] and in experiment [17] was > 100 µM (inactive) each time. The GI50 in experiment [18] was > 100 µM (inactive).

In the case of `Nc1ccn(C2OC(COP(=O)(O)O)C(O)C2O)c(=O)n1` (stereo not given), the GI50 in experiment [1] is 1.19 µM (inactive); in experiment [2] it was > 100 µM (inactive); in experiment [3] it was > 100 µM (inactive); in [4], 26.8 µM (inactive); in experiment [5], 11.4 µM (inactive); in experiment [6] it was > 100 µM (inactive). Moreover, the GI50 in [7] was 37.8 µM (inactive); in [8], 7.89 µM (inactive); in [9], 1.21 µM (inactive); in experiment [11], > 63.4 µM (inactive); in experiment [12] it was 3.08 µM (inactive); in experiment [13], 33 µM (inactive). The GI50 is > 100 µM (inactive) in experiment [14]; 24 µM (inactive) in [15]; 1.31 µM (inactive) in experiment [16]; 8.05 µM (inactive) in [19]; 0.422 µM (active) in experiment [20]; 16.6 µM (inactive) in experiment [17]. In addition, in experiment [18], the GI50 is > 100 µM (inactive).
